In test [1] the target is monomeric version of RAD51 (HumRadA22) (Pyrococcus furiosus, UniProt O74036). Briefly: Fluorescence polarisation (FP) competition assay: displacement of fluorescein-labelled BRC4 repeat. In kind it is binding, archaeal RadA mutant with human Rad51 surface residues. The conditions noted are these: 100 nM HumRadA22, 10 nM BRC4-fluorescein, KD calculated from IC50, single titration, three technical replicates per point. From the text: We prepared all stapled peptides from small-scale bacterial cultures as GB1/C-His8 fusions and cyclised them with the DVT linker. For peptides SP10, SP11, SP12 and SP15, correct stapling was confirmed by MS, showing a similar composition to SP2 (Fig. S15–S18 ^†). Thus, we confirm that the pseudo-dilution approach is robust in yielding almost exclusively the cyclised product, irrespective of whether a helical or non-helical motif is being constrained. To examine the effect of introducing a covalent staple on affinity, a mock reaction was done in parallel for each peptide by splitting the IMAC elution into two halves and adding DMSO to the mock control instead of the linker. TCEP (500 μM) was included in the mock reaction to maintain the peptide in linear form by preventing disulfide formation. The peptides were tested in a fluorescence polarisation (FP) assay monitoring the displacement of a fluorescently-labelled BRC4 repeat from a monomeric version of RAD51 (HumRadA22), as reported previously.[25] […]
Fluorescence polarisation competition assay
FP competition assay was a modified version of a protocol described previously. Fluorescein-labelled HsBRC4 probe for this assay was kindly provided by Dr Laurens Lindenburg (Hollfelder group, Department of Biochemistry, University of Cambridge). Black 384-well flat-bottom microplates (Corning, 3821) were used with a 40 μl final reaction volume in all measurements. Following buffer conditions were used: 20 mM CHES pH 9.5, 150 mM NaCl, 0.1% BSA, 0.1% Tween-20. Each reaction contained 100 nM HumRadA22 and 10 nM BRC4-fluorescein. Two-fold serial dilutions of stapled peptides were added to the reactions. A free probe control reaction containing only 10 nM BRC4-fluorescein was used to calibrate gain and focal height. FP measurements were performed on Pherastar FX or Clariostar Plus (BMG Labtech) plate readers equipped with an FP 485-520-520 optic modules. Binding curves were fitted using the four-parameter logistic model with a variable Hill slope using Prism software (Graphpad). Regression fitting was performed using the least squares optimisation algorithm.
KD values were estimated from the fitted IC 50 parameters using a previously reported

For test [2], the system named is RAD51:dT60 nucleoprotein filament (full-length human RAD51). Put plainly: Electrophoretic mobility shift assay (EMSA) of nucleoprotein filament disruption. The conditions noted are these: 5 μM full-length human RAD51, 100 nM FAM-dT60, varying peptide concentrations; 50 mM HEPES pH 7.4, 1 mM ATP. In kind it is biochemical. On the procedure:
We evaluated the effect of stapled peptides SP2, SP24 and SP30 on the nucleoprotein filament using electrophoretic mobility shift assay (EMSA, Fig. 3D). A fluorescently labelled dT60 oligonucleotide was incubated with full-length RAD51, after which the peptides were added at different concentrations before separating the products on a polyacrylamide gel.
Isothermal titration calorimetry
Peptides were resuspended in MilliQ water to 10 times the desired final concentration.
This was then diluted 10x with the ITC buffer to obtain the final titrant solution (20 mM CHES pH 9.5, 150 mM NaCl, 0.1% Tween-20). HumRadA22 was buffer-exchanged on a NAP-5 desalting column (Cytiva) into ITC buffer and protein concentration was adjusted to 10:9 of the desired final value. One ninth volume of MilliQ water was added to the solution to bring the protein concentration to the desired final value, while maintaining identical buffer:MilliQ volume proportions in both the syringe and the cell. ITC was carried out using a Microcal ITC200 or Malvern PEAQ ITC instruments at 25°C with a 5.00 μCal reference power DP value, stirring speed of 500-750 rpm, 2 sec filter period. Injection spacing, speed and volume, cell/syringe concentrations as well as the number of injections were adjusted for each peptide and its binding properties. ITC data were fitted using a single-site binding model using the Microcal ITC data analysis program in the Origin 7.0 package. Data points affected by baseline spikes were omitted from the analysis.
Circular dichroism spectroscopy
Dried peptides were dissolved in MilliQ water to 0.3 mg/ml, and then two-fold diluted in 20 mM sodium phosphate, pH 7.4, giving a final solution of 0.15 mg/ml peptide in 10 mM sodium phosphate. CD spectra of selected peptides were recorded on an AVIV 410 circular dichroism spectropolarimeter using a 1 mm path length quartz cuvette. […]
The ability of linear and stapled BRC repeat peptides to dissociate RAD51-ssDNA nucleofilament was evaluated using an electrophoretic mobility shift assay (EMSA). […]
(In general: In EMSA bound probe runs differently from free probe, usually more slowly.)

[3] abbreviates: stapled product (linker DVT or DVP as in Table 1), 20 mM CHES pH 9.5, 150 mM NaCl, 0.1% BSA, 0.1% Tween-20, read-out: FP competition KD, nM, Stapled.
Setting [4] is: unstapled linear form, mock reaction with DMSO instead of linker plus TCEP, 20 mM CHES pH 9.5, read-out: FP competition KD, nM, Unstapled.

Like-named read-outs stand apart in the source and are kept apart here. Numbered stars: 1 amine (or outer) side, 2 acyl side, 3 side chain; on linkers, the order of the positions; unused ones are H or OH. Bridge positions count the residues as written; N and C are the ends. Ends that are not written are not given here. X2 = CN(CC(=O)O)c1nc(CC[*:1])nc(CC[*:2])n1

As usually defined, the Kd is the constant that tells how readily two partners part at equilibrium.

Turning to “VNSSAFSGFSTASGKKLNVSCEALQKACKLFSDIENIS (also: sidechain bridge or staple (positions not given here)) [GB1-SP2, GB1/C-His8 fusion peptide stapled with DVT; unstapled column is its linear mock control]”, the Kd in test [1] (setting [3]) was 15 nM; in test [1] (setting [4]), 6 nM.
As for “VNSSAFSGFSTASGKKLNVSTEALQKAVKLFSDIENIS [GB1-BRC8-2, linear BRC8-2 template as GB1/C-His8 fusion]”, the Kd in test [1] (setting [4]) is 11 nM.
“VNCSAFSGFSTASGKKLCVS (also: sidechain bridge or staple (positions not given here)) [GB1-SP14, GB1/C-His8 fusion peptide stapled with DVT; unstapled column is its linear mock control]”: the Kd in test [1] (setting [3]) and in test [1] (setting [4]) was over 500 nM each time.
Turning to “SCEALQKACKLFSDIENIS (also: sidechain bridge or staple (positions not given here)) [GB1-SP1, GB1/C-His8 fusion peptide stapled with DVT; unstapled column is its linear mock control]”, the Kd in test [1] (setting [3]) and in test [1] (setting [4]) was over 500 nM in each case.
Turning to “VNCSAFSGFSTASGKKLNVSTEALCKAVKLFSDIENIS (also: sidechain bridge or staple (positions not given here)) [GB1-SP13, GB1/C-His8 fusion peptide stapled with DVT; unstapled column is its linear mock control]”, the Kd is 28 nM in test [1] (setting [3]) and 21 nM in test [1] (setting [4]).
Take “VNSSAFSGFSTASGKKLNVSCEALQKACKLFSDIECIS (also: sidechain bridge or staple (positions not given here)) [GB1-SP15, GB1/C-His8 fusion peptide stapled with DVT; unstapled column is its linear mock control]”: the figures for the Kd in test [1] (setting [3]) and in test [1] (setting [4]) were 13 nM and 15 nM, respectively.
On to “SCFSTASGKKLNVSCEALQKAVKLFSDIENIS (also: sidechain bridge or staple (positions not given here)) [GB1-SP11, GB1/C-His8 fusion peptide stapled with DVT; unstapled column is its linear mock control]”, for which the Kd was 36 nM in test [1] (setting [3]) and 29 nM in test [1] (setting [4]).
Regarding “VNSSAFSGFSTASGKKLNVSTEALCKAVKLFCDIENIS (also: sidechain bridge or staple (positions not given here)) [GB1-SP9, GB1/C-His8 fusion peptide stapled with DVT; unstapled column is its linear mock control]”, the Kd in test [1] (setting [3]) was 51 nM; in test [1] (setting [4]) it was 57 nM.
As to “VNSSAFSGFSTASGKKLNVSTCALQKAVCLFSDIENIS (also: sidechain bridge or staple (positions not given here)) [GB1-SP8, GB1/C-His8 fusion peptide stapled with DVT; unstapled column is its linear mock control]”, the Kd was 29 nM in test [1] (setting [3]) and 45 nM in test [1] (setting [4]).
With “ACSGFSTASGKKLNCS (also: sidechain bridge or staple (positions not given here)) [GB1-SP16, GB1/C-His8 fusion peptide stapled with DVT; unstapled column is its linear mock control]”, the Kd in test [1] (setting [3]) and in test [1] (setting [4]) was over 500 nM each time.
For “H-GSVNSSAFSGFSTASGKKLNVSCEALQKACKLFSDIENISGSS-OH (linker 23-30 via X2) [SP2]”, the “Depolymerisation of RAD51 from single-stranded DNA (EMSA)” value in test [2] is recorded as “depolymerise RAD51 from single-stranded DNA to similar extent”.
Regarding “ACGFSTASGKKLNVSCEALQKAVKLFSDIENIS (also: sidechain bridge or staple (positions not given here)) [GB1-SP10, GB1/C-His8 fusion peptide stapled with DVT; unstapled column is its linear mock control]”, the Kd in test [1] (setting [3]) was 27 nM; in test [1] (setting [4]), 35 nM.
On to “VNSSAFSGFCTASGKKLNVSCEALQKAVKLFSDIENIS (also: sidechain bridge or staple (positions not given here)) [GB1-SP7, negative control GB1/C-His8 fusion peptide stapled with DVT; unstapled column is its linear mock control]”, for which the Kd in test [1] (setting [4]) is 39 nM.
In the case of “SSACSGFSTASGKKLNVSTEACQKAVKLFSDIENIS (also: sidechain bridge or staple (positions not given here)) [GB1-SP12, GB1/C-His8 fusion peptide stapled with DVT; unstapled column is its linear mock control]”, the Kd is 14 nM in test [1] (setting [3]) and 50 nM in test [1] (setting [4]).
